Positions of bridges follow the written chain, without caps; N, C: chain ends. Non-standard residues stand in square brackets, D forms with d. Residues, ends and D or L forms follow the SMILES beside them. *: point of attachment. Ileψ(thiazoline)Cys = CC[C@H](C)[C@H](N)C1=N[C@H](C(=O)*)CS1; dOrn = NCCC[C@@H](N)C(=O)O
Tests used:
resident flora = conditions: infants, after treatment with the antibiotic (Brook, 2000); cited from earlier work
[1] = tested on: Staphylococcus aureus (DSM346); assay: in-vitro-hole plate assay, growth inhibition of S. aureus in comparison to bacitracin and erythromycin; type: cell-based; conditions: pre-cutted holes, BHI plates; antibiotics at different concentrations, defined numbers of Lactobacillus cells
Description: The term “microorganisms of the pathogenic transient micro flora” has been described herein above. Preferably, the term relates to Staphylococcus aureus. […] This effect has been compared to commercial antibiotic cream preparations of bacitracin and erythromycin. […] The diameter of the inhibition zones has been measured and the area of inhibition has been calculated thereof. […] Lactic acid bacteria were cultivated (OB-LB-Sa3; DSM 18006) from a −80° C. freezing culture in 1 ml MRS broth in eppendorf tubes. Tubes were closed and cultivated for 2 days at 37° C. 10 μl of this pre culture was transferred to the main culture consisting of 7 ml MRS broth in falcon tubes. The culture was incubated for 2 days. After cultivation cells were harvested by centrifugation (15 min, 4000×g). The cell pellet was washed two times with K/Na-buffer (each 1 ml). Cells were resuspended in 200 μl K/Na buffer. The indicator strain was Staphylococcus aureus (DSM346). 20 ml BHI broth in a shaking glass flask were inoculated with 15 μl of a 24 h pre culture. The indicator strain was cultivated for 24 h at 37° C. An aliquot was diluted to an optical density OD595 nm of 0.025-0.05 in BHI-broth and 800 μl spread on indicator plates (BHI). The agar was stamped using a cork borer. The holes were filled with 5 μl or 10 μl of the pre cultured lactic acid bacteria or corresponding volumes of commercial antibiotic preparations.

Molecule: CC1(C)S[C@@H]2[C@H](NC(=O)[C@H](N)c3ccc(O)cc3)C(=O)N2[C@H]1C(=O)O [amoxicillin]
- repression of the resident flora (resident flora): about 50%

Molecule: CC[C@H](C)[C@H](N)C1=N[C@H](C(=O)N[C@@H](CC(C)C)C(=O)N[C@H](CCC(=O)O)C(=O)N[C@H](C(=O)N[C@H]2CCCCNC(=O)[C@H](CC(N)=O)NC(=O)[C@@H](CC(=O)O)NC(=O)[C@H](Cc3cnc[nH]3)NC(=O)[C@@H](Cc3ccccc3)NC(=O)[C@H]([C@@H](C)CC)NC(=O)[C@@H](CCCN)NC2=O)[C@@H](C)CC)CS1 [bacitracin] ({Ileψ(thiazoline)Cys}-L[dE]IK[dOrn]I[dF]H[dD]N; lactam 4-C)
- growth inhibition of S. aureus (inhibition zone, area of inhibition) [1]: growth inhibition

Molecule: CC[C@H]1OC(=O)[C@H](C)[C@@H](O[C@H]2C[C@@](C)(OC)[C@@H](O)[C@H](C)O2)[C@H](C)[C@@H](O[C@@H]2O[C@H](C)C[C@H](N(C)C)[C@H]2O)[C@](C)(O)C[C@@H](C)C(=O)[C@H](C)[C@@H](O)[C@]1(C)O [erythromycin]
- growth inhibition of S. aureus (inhibition zone, area of inhibition) [1]: growth inhibition

Molecule: Lactobacillus delbrückii ssp. delbrückii OB-LB-Sa3
- growth inhibition of S. aureus (inhibition zone, area of inhibition) [1]: growth inhibition
